Drawing on US20250382322A1, “DIAGNOSTICS FOR DETECTING ECTO-5'-NUCLEOTIDASE (CD73)” (EBERHARD KARLS UNIVERSITÄT TÜBINGEN, priority 2022, published 2025), this text covers IC50 and EC50 for two molecules.

Where only a bound is given, the exact number is not on record here.

Assay [1] concerns the target T1, human NTPDase1 (Homo sapiens, UniProt P49961).
T1 sequence (P49961 1-510): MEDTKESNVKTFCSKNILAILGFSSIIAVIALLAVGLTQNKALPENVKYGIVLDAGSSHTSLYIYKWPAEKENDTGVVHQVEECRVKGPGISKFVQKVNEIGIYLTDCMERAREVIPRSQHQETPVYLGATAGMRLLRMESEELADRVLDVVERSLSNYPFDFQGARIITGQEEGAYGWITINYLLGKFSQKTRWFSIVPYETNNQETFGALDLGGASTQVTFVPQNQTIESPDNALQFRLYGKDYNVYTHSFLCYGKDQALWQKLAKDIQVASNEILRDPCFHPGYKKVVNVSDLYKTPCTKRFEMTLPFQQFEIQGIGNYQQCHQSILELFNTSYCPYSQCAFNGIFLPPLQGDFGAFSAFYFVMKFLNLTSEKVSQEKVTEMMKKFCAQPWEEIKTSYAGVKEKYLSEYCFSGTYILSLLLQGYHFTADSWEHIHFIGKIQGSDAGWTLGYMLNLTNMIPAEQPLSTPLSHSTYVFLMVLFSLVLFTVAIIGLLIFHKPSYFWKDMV
Nature of the assay: Capillary electrophoresis assay for human NTPDase1. Format: biochemical. The settings on record: ATP (100 μM) as substrate. The procedure: (§1) Inhibitory activity of the CD73 inhibitors 2 and 20 at human NTPDases 1, 2, 3, and 8 was investigated using ATP (100 μM) as a substrate according to previously published procedures.^24 ATP and 2 were co-incubated with recombinantly expressed human NTPDases at 37° C. for 30 min, and the enzymatic reaction was terminated by heating at 90° C. for 10 min. The amount of enzyme preparation was adjusted to ensure 10-20% of substrate conversion. The formed products were separated by capillary electrophoresis (CE) and individually quantitated by diode array detection (DAD) at a wavelength of 260 nm. For inhibition analysis, at least three independent experiments were performed each in triplicate. The inhibition of the enzyme activity was calculated in relation to the positive control without inhibitor and plotted by GraphPad Prism 8 software (GraphPad software, San Diego, CA, USA) (for results see Table 2 and Table 3).
(§2) Test compounds were investigated at a concentration of 50 μM, and 100 μM ATP substrate according to published procedures.^24 Recombinantly expressed human NTPDases were employed. The amount of enzyme preparation was adjusted to ensure 10-20% of substrate conversion. […] The inhibition of the enzyme activity was calculated in relation to the positive control without inhibitor and plotted in GraphPad Prism 8 software (GraphPad software, San Diego, CA, USA). […]

The target in assay [2] is T2, human NTPDase8 (Homo sapiens, UniProt Q5MY95).
T2 sequence (Q5MY95 1-495): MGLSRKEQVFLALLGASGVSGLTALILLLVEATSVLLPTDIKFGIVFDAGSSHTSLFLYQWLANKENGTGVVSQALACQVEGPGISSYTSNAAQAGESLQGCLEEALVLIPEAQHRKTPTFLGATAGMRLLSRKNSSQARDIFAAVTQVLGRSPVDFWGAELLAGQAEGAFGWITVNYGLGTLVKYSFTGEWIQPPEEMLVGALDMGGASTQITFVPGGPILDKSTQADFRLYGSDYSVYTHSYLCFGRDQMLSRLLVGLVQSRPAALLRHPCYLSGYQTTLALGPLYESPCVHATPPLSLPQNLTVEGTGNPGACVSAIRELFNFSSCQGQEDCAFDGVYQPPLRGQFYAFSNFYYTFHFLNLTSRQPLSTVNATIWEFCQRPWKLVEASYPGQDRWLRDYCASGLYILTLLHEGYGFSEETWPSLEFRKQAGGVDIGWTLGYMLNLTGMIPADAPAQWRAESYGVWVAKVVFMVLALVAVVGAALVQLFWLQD
Nature of the assay: Capillary electrophoresis assay for human NTPDase8. It is filed as biochemical. The settings on record: ATP (100 μM) as substrate. The procedure:
as §1, §2

Assay [3] concerns the target T3, human P2Y12 receptor (Homo sapiens, UniProt Q9H244).
T3 construct: host or cells: CHO-PK1 cells (so in the source)
Kind of assay: β-arrestin recruitment assay at P2Y12 receptor. It is filed as cell-based. The settings on record: CHO-PK1 cells; for IC50: 2-methylthio-ADP as agonist at EC80 (3 μM), read-out: Inhibition P2Y12 receptor IC50; for EC50: read-out: Activation P2Y12 receptor EC50. From the text: The interaction of 2 with the human P2Y12 receptor was investigated in a β-arrestin recruitment assay using the galactosidase complementation technology as previously described.^25-27 The human P2Y12 receptor was expressed in CHO-PK1 cells (Eurofins DiscoverX, Fremont, CA, USA). For results see Table 2 and Table 3.
On the technique in general: Activated receptors often draw arrestin, which recruitment assays turn into a signal.

T3 sequence (Q9H244 whole entry): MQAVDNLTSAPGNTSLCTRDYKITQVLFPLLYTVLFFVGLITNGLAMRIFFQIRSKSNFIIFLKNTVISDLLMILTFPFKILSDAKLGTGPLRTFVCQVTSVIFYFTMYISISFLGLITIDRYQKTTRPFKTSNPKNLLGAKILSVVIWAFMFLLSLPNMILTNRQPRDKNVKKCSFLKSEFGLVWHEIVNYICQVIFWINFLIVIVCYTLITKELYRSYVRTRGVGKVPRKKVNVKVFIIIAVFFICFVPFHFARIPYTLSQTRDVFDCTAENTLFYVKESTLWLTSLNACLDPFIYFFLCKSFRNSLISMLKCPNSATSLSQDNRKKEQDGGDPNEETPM

One may read the IC50 as the concentration that inhibits the measured activity by half. In general, EC50 refers to the midpoint of the concentration-response curve. On to `CCCN(Cc1ccc(-c2cn(CCF)nn2)cc1)c1nc(Cl)nc2c1ncn2[C@@H]1O[C@H](COP(=O)(O)CP(=O)(O)O)C(O)C1O` (some centres unmarked) [Compound 2], for which the IC50 is greater than 50 µM in assay [1], greater than 50 µM in assay [2] and greater than 10 µM in assay [3]. Further, the concentration giving a half-maximal response (EC50) in assay [3] was greater than 10 µM.

Regarding `O=C(NCCCCCCNC(=O)c1ccc2c(c1)C1(OC2=O)c2ccc(O)cc2Oc2cc(O)ccc21)c1ccc(CNc2nc(Cl)nc3c2ncn3[C@@H]2O[C@H](COP(=O)(O)CP(=O)(O)O)[C@@H](O)[C@H]2O)cc1` [Compound 20, (((((2R,3S,4R,5R)-5-(2-chloro-6-((4-((6-(3′,6′-dihydroxy-3-oxo-3H-spiro[isobenzofuran-1,9′-xanthene]-6-carboxamido)-hexyl)carbamoyl)benzyl)amino)-9H-purin-9-yl)-3,4-dihydroxytetrahydrofuran-2-yl)methoxy)(hydroxy)phosphoryl)methyl)phosphonic acid], the IC50 is 27.6 µM in assay [1], less than 50 µM in assay [2] and greater than 10 µM in assay [3]. Further, the half-maximal effective concentration (EC50) in assay [3] is greater than 10 µM.
